In one assay the target is HLA B*1503 (Homo sapiens, UniProt P01889, A329T/A93T/A95T/C349S/D201E/D98Y/E187L/E204Q/K202T/N87E/Q94N/R155S/R180L/S121R/S35A/V306I/V36M/Y140S/Y91S). The assay is described as follows: biochemical. The class given is binding.
A further assay concerns the target HLA B*1501 (Homo sapiens, UniProt P01889, A329T/A93T/A95T/C349S/D201E/D98Y/E187L/E204Q/E69M/E70A/K202T/N87E/Q94N/R155S/R180W/S121R/S35A/S48A/V306I/V36M/Y140S/Y91S). The experiment in a line: biochemical. The assay is classed as binding.

pIC50: −log10 of the molar value. Where a SMILES comes first, the peptide text is derived from it.

What is called pIC50 is the negative decadic logarithm of the IC50, by convention in mol/L. A low value points to a high IC50. On to `CC[C@H](C)[C@H](NC(=O)[C@H](CO)NC(=O)[C@@H](N)Cc1ccccc1)C(=O)N[C@@H](Cc1ccc(O)cc1)C(=O)N[C@@H](CO)C(=O)N[C@H](C(=O)N[C@@H](CO)C(=O)N[C@@H](CS)C(=O)N[C@@H](Cc1ccccc1)C(=O)O)C(C)C` [3102.1330] (H-FSIYSVSCF-OH), for which the pIC50 at HLA B*1503 was 8.12; at HLA B*1501, 8.51.

On to `CC(C)C[C@H](NC(=O)[C@H](Cc1ccccc1)NC(=O)[C@@H](NC(=O)[C@H](CCCCN)NC(=O)[C@H](CO)NC(=O)[C@@H](N)CO)C(C)C)C(=O)N[C@@H](CCCCN)C(=O)N[C@@H](C)C(=O)N[C@@H](Cc1ccccc1)C(=O)O` [3102.0662] (H-SSKVFLKAF-OH), for which the negative logarithm of the IC50 (pIC50) was 9.43 against HLA B*1503 and 8.77 against HLA B*1501.

For `CC[C@H](C)[C@H](NC(=O)[C@H](Cc1c[nH]cn1)NC(=O)[C@H](CCC(N)=O)NC(=O)[C@H](CO)NC(=O)[C@H](CCC(=O)O)NC(=O)[C@@H](N)CC(C)C)C(=O)N[C@H](C(=O)N[C@@H](CO)C(=O)N[C@@H](Cc1ccccc1)C(=O)O)[C@@H](C)CC` [3102.1322] (H-LESQHIISF-OH), the negative logarithm of the IC50 (pIC50) against HLA B*1503 is 7.55; on HLA B*1501 it was 7.24.

With `CC[C@H](C)[C@H](NC(=O)[C@H](CCSC)NC(=O)[C@H](CC(C)C)NC(=O)[C@H](CCSC)NC(=O)[C@@H](N)CCSC)C(=O)NCC(=O)N[C@@H](CC(N)=O)C(=O)N[C@@H](Cc1ccc(O)cc1)C(=O)N[C@@H](Cc1ccccc1)C(=O)O` [3102.1301] (H-MMLMIGNYF-OH), the pIC50 against HLA B*1503 was 9.70; at HLA B*1501, 7.48.

As to `CC[C@H](C)[C@H](NC(=O)[C@H](Cc1c[nH]cn1)NC(=O)[C@H](CO)NC(=O)[C@@H](NC(=O)[C@@H](NC(=O)[C@H](Cc1ccc(O)cc1)NC(=O)[C@H](C)NC(=O)[C@H](CCSC)NC(=O)[C@@H](N)Cc1ccccc1)[C@@H](C)O)[C@@H](C)O)C(=O)O` [3102.1071] (H-FMAYTTSHI-OH), the pIC50 is 8.12 at HLA B*1503 and 6.88 at HLA B*1501.

As for `CC[C@H](C)[C@H](NC(=O)[C@H](CO)NC(=O)[C@@H](N)CC(C)C)C(=O)N[C@@H](CC(N)=O)C(=O)N[C@@H](CO)C(=O)N[C@@H](CO)C(=O)N[C@@H](Cc1ccccc1)C(=O)N[C@@H](Cc1ccc(O)cc1)C(=O)N[C@@H](Cc1ccccc1)C(=O)O` [3102.1034] (H-LSINSSFYF-OH), the figures for the negative logarithm of the IC50 (pIC50) at HLA B*1503 and against HLA B*1501 were 8.32 and 9.00, respectively.

Turning to `CSCC[C@H](NC(=O)[C@@H](N)C(C)C)C(=O)N[C@H](C(=O)N[C@H](C(=O)N[C@@H](CO)C(=O)N[C@@H](CCCCN)C(=O)N1CCC[C@H]1C(=O)N[C@@H](CC(C)C)C(=O)N[C@@H](Cc1ccccc1)C(=O)O)[C@@H](C)O)C(C)C` [3102.1148] (H-VMVTSKPLF-OH), the pIC50 on HLA B*1503 was 8.06; on HLA B*1501, 7.80.

Take `CSCC[C@H](NC(=O)[C@H](CO)NC(=O)[C@H](CCSC)NC(=O)[C@@H](N)CCSC)C(=O)N[C@@H](Cc1ccc(O)cc1)C(=O)NCC(=O)N[C@@H](CCCCN)C(=O)N[C@@H](C)C(=O)N[C@@H](Cc1ccccc1)C(=O)O` [3102.1173] (H-MMSMYGKAF-OH): the pIC50 was 8.59 at HLA B*1503 and 8.49 on HLA B*1501.

On to `CC[C@H](C)[C@H](NC(=O)[C@H](CCC(N)=O)NC(=O)[C@@H](N)CO)C(=O)N[C@@H](CCC(=O)O)C(=O)N[C@H](C(=O)NCC(=O)N[C@H](C(=O)N1CCC[C@H]1C(=O)N[C@@H](Cc1ccccc1)C(=O)O)[C@@H](C)O)[C@@H](C)O` [3102.1253] (H-SQIETGTPF-OH), for which the pIC50 at HLA B*1503 is 8.89; against HLA B*1501, 9.21.

`C[C@@H](O)[C@H](NC(=O)[C@H](CCCCN)NC(=O)[C@H](Cc1ccc(O)cc1)NC(=O)[C@H](CCC(N)=O)NC(=O)[C@@H](N)CCC(=O)O)C(=O)N[C@@H](CCC(=O)O)C(=O)N[C@@H](CO)C(=O)N[C@@H](Cc1ccccc1)C(=O)N[C@@H](Cc1ccccc1)C(=O)O` [3102.1224] (H-EQYKTESFF-OH): the pIC50 against HLA B*1503 was 8.74; on HLA B*1501, 8.18.

`CC(C)C[C@H](NC(=O)[C@H](CC(C)C)NC(=O)[C@@H](NC(=O)[C@H](CO)NC(=O)[C@H](Cc1ccc(O)cc1)NC(=O)[C@H](CC(C)C)NC(=O)[C@@H](N)CCC(N)=O)[C@@H](C)O)C(=O)N[C@@H](CO)C(=O)N[C@@H](Cc1ccccc1)C(=O)O` [3102.1175] (H-QLYSTLLSF-OH): the pIC50 on HLA B*1503 is 9.24; on HLA B*1501 it was 8.52.

Consider `CC[C@H](C)[C@H](NC(=O)[C@H](CCC(N)=O)NC(=O)[C@@H](N)CO)C(=O)N[C@H](C(=O)N[C@H](C(=O)N[C@@H](CC(C)C)C(=O)N[C@H](C(=O)N[C@@H](C)C(=O)N[C@@H](Cc1ccccc1)C(=O)O)[C@@H](C)O)[C@@H](C)O)[C@@H](C)CC` [3102.1111] (H-SQIITLTAF-OH), for which the pIC50 against HLA B*1503 was 9.10; on HLA B*1501, 9.00.

In the case of `CC(C)C[C@H](NC(=O)[C@H](C)N)C(=O)N[C@@H](CCCNC(=N)N)C(=O)N1CCC[C@H]1C(=O)N[C@@H](CO)C(=O)N[C@@H](CO)C(=O)N[C@@H](CCC(N)=O)C(=O)N[C@H](C(=O)N[C@@H](Cc1ccccc1)C(=O)O)C(C)C` [3102.1320] (H-ALRPSSQVF-OH), the values for the pIC50 against HLA B*1503 and at HLA B*1501 were 10.02 and 8.82, respectively.

Regarding `CC(C)C[C@H](NC(=O)[C@@H](NC(=O)[C@H](CO)NC(=O)[C@@H](NC(=O)[C@H](CC(N)=O)NC(=O)[C@H](CC(C)C)NC(=O)[C@@H](N)CO)[C@@H](C)O)[C@@H](C)O)C(=O)NCC(=O)N[C@@H](Cc1ccccc1)C(=O)O` [3102.1051] (H-SLNTSTLGF-OH), the figures for the negative logarithm of the IC50 (pIC50) at HLA B*1503 and against HLA B*1501 were 7.89 and 8.77, respectively.

For the molecule `CC(C)[C@H](NC(=O)[C@H](CCC(N)=O)NC(=O)[C@@H](N)CO)C(=O)N[C@@H](CCCCN)C(=O)N[C@@H](CS)C(=O)N[C@@H](CS)C(=O)N[C@@H](Cc1c[nH]cn1)C(=O)N[C@@H](Cc1ccc(O)cc1)C(=O)N[C@@H](Cc1ccccc1)C(=O)O` [3102.1126] (H-SQVKCCHYF-OH), the negative logarithm of the IC50 (pIC50) at HLA B*1503 and on HLA B*1501 was 9.04 throughout.

Turning to `CC(C)C[C@H](NC(=O)[C@H](CO)NC(=O)[C@H](CO)NC(=O)CNC(=O)[C@H](CO)NC(=O)[C@H](CCCCN)NC(=O)[C@H](C)NC(=O)[C@H](CCC(N)=O)NC(=O)[C@@H](N)CC(C)C)C(=O)O` [3102.1276] (H-LQAKSGSSL-OH), the pIC50 on HLA B*1503 was 9.48; against HLA B*1501, 8.34.

As for `CC[C@H](C)[C@H](NC(=O)[C@H](CO)NC(=O)[C@@H](N)Cc1c[nH]c2ccccc12)C(=O)N[C@@H](Cc1ccc(O)cc1)C(=O)N[C@@H](CC(C)C)C(=O)N[C@@H](CO)C(=O)N[C@@H](CC(C)C)C(=O)N[C@@H](Cc1c[nH]cn1)C(=O)N[C@@H](Cc1ccc(O)cc1)C(=O)O` [3102.0867] (H-WSIYLSLHY-OH), the negative logarithm of the IC50 (pIC50) is 8.05 on HLA B*1503 and 7.32 on HLA B*1501.

As to `CC(C)C[C@H](NC(=O)[C@@H](N)CCCNC(=N)N)C(=O)N[C@@H](CC(N)=O)C(=O)N1CCC[C@H]1C(=O)N[C@@H](CCC(=O)O)C(=O)N[C@H](C(=O)N[C@@H](CO)C(=O)N[C@@H](Cc1ccc(O)cc1)C(=O)N[C@@H](Cc1ccccc1)C(=O)O)C(C)C` [3102.1097] (H-RLNPEVSYF-OH), the pIC50 on HLA B*1503 is 9.49; on HLA B*1501, 9.52.

As to `CSCC[C@H](NC(=O)[C@H](Cc1c[nH]cn1)NC(=O)[C@H](CCC(N)=O)NC(=O)CNC(=O)[C@@H]1CCCN1C(=O)[C@@H]1CCCN1C(=O)[C@H](C)NC(=O)[C@H](CO)NC(=O)[C@@H](N)CS)C(=O)O` [3102.1226] (H-CSAPPGQHM-OH), the pIC50 against HLA B*1503 is 7.62; on HLA B*1501 it was 7.28.

On to `CC[C@H](C)[C@H](N)C(=O)N[C@@H](CO)C(=O)N[C@H](C(=O)N[C@@H](CC(C)C)C(=O)N[C@H](C(=O)NCC(=O)N[C@@H](CO)C(=O)N[C@@H](CO)C(=O)N[C@H](C(=O)O)[C@@H](C)CC)[C@@H](C)O)C(C)C` [3102.1072] (H-ISVLTGSSI-OH), for which the pIC50 against HLA B*1503 is 7.60; against HLA B*1501, 7.47.

Consider `CC(C)[C@H](NC(=O)[C@H](Cc1ccccc1)NC(=O)CNC(=O)[C@H](Cc1c[nH]cn1)NC(=O)[C@H](CC(N)=O)NC(=O)[C@H](CCC(N)=O)NC(=O)[C@@H](N)Cc1ccc(O)cc1)C(=O)N[C@@H](CO)C(=O)N[C@@H](Cc1ccccc1)C(=O)O` [3102.1231] (H-YQNHGFVSF-OH), for which the pIC50 was 8.62 against HLA B*1503 and 9.77 at HLA B*1501.

Consider `CC(C)C[C@H](NC(=O)[C@H](CO)NC(=O)[C@@H]1CCCN1C(=O)[C@H](CO)NC(=O)[C@H](Cc1ccccc1)NC(=O)[C@H](CO)NC(=O)[C@@H](N)C(C)C)C(=O)N[C@H](C(=O)N[C@@H](Cc1ccccc1)C(=O)O)[C@@H](C)O` [3102.1333] (H-VSFSPSLTF-OH), for which the pIC50 against HLA B*1503 was 8.92; against HLA B*1501 it was 8.89.

On to `CC[C@H](C)[C@H](NC(=O)[C@H](Cc1c[nH]cn1)NC(=O)[C@H](CCCCN)NC(=O)[C@H](CC(N)=O)NC(=O)[C@H](CCSC)NC(=O)[C@@H](N)Cc1ccccc1)C(=O)N[C@@H](CC(C)C)C(=O)N[C@@H](CO)C(=O)N[C@@H](Cc1ccc(O)cc1)C(=O)O` [3102.1258] (H-FMNKHILSY-OH), for which the pIC50 against HLA B*1503 was 9.13; at HLA B*1501, 8.77.

Regarding `CC[C@H](C)[C@H](NC(=O)[C@H](CO)NC(=O)[C@H](CO)NC(=O)[C@H](CCCCN)NC(=O)[C@@H](NC(=O)[C@@H](N)CC(C)C)C(C)C)C(=O)N[C@@H](CC(C)C)C(=O)N[C@H](C(=O)N[C@@H](CC(C)C)C(=O)O)[C@@H](C)O` [3102.0793] (H-LVKSSILTL-OH), the pIC50 on HLA B*1501 is 8.51.

`CSCC[C@H](N)C(=O)N[C@@H](CCC(=O)O)C(=O)N[C@@H](CCCNC(=N)N)C(=O)N[C@@H](Cc1ccccc1)C(=O)N[C@@H](CC(N)=O)C(=O)N[C@@H](CS)C(=O)N[C@@H](CO)C(=O)N[C@@H](CO)C(=O)N[C@@H](Cc1ccccc1)C(=O)O` [3102.0839] (H-MERFNCSSF-OH) showed a negative-log IC50 (pIC50) against HLA B*1501 of 8.80.

Molecule `CC(C)C[C@H](NC(=O)[C@H](CO)NC(=O)[C@H](CCCCN)NC(=O)[C@H](CC(C)C)NC(=O)[C@@H](N)CO)C(=O)N[C@@H](Cc1ccc(O)cc1)C(=O)N[C@@H](CCC(=O)O)C(=O)N[C@@H](C)C(=O)N[C@@H](Cc1ccccc1)C(=O)O` [3102.0923] (H-SLKSLYEAF-OH) showed a pIC50 at HLA B*1501 of 7.70.

Values taken from PMC2248166, “Quantitative peptide binding motifs for 19 human and mouse MHC class I molecules derived using positional scanning combinatorial peptide libraries” (Immunome Research, 2008).
